Literature values in patent publication US20140377346A1, “BOSENTAN CONTROLLED RELEASE ORAL PREPARATION” (HANALL BIOPHARMA CO., LTD., priority 2012, published 2014).
Where two headings read alike, the source gives them in different places.

## COc1ccccc1Oc1c(NS(=O)(=O)c2ccc(C(C)(C)C)cc2)nc(-c2ncccn2)nc1OCCO [bosentan, 4-tert-butyl-N-[6-(2-hydroxy-ethoxy)-5-(2-methoxy-phenoxy)-2-(pyrimidin-2-yl)-pyrimidin-4-yl]-benzenesulfonamide]
pH 1.0
  water needed to dissolve 0.1 mg of bosentan: ≥ 100 mL
pH 5.0
  water needed to dissolve 0.1 mg of bosentan: ≥ 50 mL
pH 7.5
  water needed to dissolve 0.1 mg of bosentan: approximately 0.3 ml
